The source of these data is patent US20210038607A1, “OXADIAZOLYLTHIOPHENE DERIVATIVES USEFUL AS HISTONE DEACETYLASE INHIBITORS” (Karus Therapeutics Limited, priority 2018, published 2021).

The target of one assay is T1, Recombinant human HDAC6 (Homo sapiens, UniProt Q9UBN7).
T1 construct: full length, MW=159 kDa; GST (N); host or cells: Sf9 insect cells (baculovirus)
T1 sequence (Q9UBN7 1-1215): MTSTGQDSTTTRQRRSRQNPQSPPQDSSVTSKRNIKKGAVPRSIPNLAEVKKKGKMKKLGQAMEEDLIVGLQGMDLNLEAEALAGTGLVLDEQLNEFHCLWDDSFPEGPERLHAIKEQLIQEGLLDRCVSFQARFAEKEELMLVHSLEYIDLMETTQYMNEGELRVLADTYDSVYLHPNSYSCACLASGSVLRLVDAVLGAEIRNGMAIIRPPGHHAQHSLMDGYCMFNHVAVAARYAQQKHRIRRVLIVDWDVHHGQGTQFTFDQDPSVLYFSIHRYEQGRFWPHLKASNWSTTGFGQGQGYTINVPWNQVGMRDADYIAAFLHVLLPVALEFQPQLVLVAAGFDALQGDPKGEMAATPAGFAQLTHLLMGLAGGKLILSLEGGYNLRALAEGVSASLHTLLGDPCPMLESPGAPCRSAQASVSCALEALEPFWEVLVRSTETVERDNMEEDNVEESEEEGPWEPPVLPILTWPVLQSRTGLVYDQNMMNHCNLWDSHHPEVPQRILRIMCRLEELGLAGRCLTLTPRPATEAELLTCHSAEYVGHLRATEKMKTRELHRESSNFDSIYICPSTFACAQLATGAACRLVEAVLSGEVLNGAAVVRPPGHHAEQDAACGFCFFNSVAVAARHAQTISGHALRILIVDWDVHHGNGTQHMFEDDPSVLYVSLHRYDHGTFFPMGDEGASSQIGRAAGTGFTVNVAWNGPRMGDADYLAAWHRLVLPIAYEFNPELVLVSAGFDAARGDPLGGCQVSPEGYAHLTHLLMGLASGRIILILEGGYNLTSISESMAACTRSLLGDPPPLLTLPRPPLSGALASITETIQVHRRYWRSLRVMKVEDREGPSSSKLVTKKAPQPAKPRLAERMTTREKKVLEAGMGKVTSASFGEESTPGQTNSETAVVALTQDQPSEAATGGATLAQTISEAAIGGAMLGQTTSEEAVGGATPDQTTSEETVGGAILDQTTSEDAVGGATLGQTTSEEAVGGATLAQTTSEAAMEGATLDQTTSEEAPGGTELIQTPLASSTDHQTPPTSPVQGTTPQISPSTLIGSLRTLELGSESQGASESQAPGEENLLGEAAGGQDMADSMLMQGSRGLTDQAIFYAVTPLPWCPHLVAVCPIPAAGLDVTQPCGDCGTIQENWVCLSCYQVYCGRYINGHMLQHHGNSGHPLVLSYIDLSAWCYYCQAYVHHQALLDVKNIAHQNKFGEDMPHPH
As to the kind of experiment: HDAC6 biochemical assay, AMC-labeled peptide substrate. As to conditions: HDAC6; read-out: HDAC Isoform IC50 (nM) 6. Summed up: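 Two-step fluorogenic read-out: enzyme deacetylates 50 μM RHKK(Ac)AMC for 1 h at 30° C in pH 8.0 Tris buffer with BSA and 1% DMSO, then developer cleavage gives signal at Ex 360/Em 460. Enzyme: 0.3 ng/ul recombinant full-length human HDAC6, GST-tagged, Sf9-expressed.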

The target of a further assay is T2, Human HDAC5 (Homo sapiens, UniProt Q9UQL6).
T2 construct: full length with C-terminal His tag, MW=51.1 kDa; His (C); host or cells: baculovirus expression system
T2 sequence (Q9UQL6 656-1122 limits assumed): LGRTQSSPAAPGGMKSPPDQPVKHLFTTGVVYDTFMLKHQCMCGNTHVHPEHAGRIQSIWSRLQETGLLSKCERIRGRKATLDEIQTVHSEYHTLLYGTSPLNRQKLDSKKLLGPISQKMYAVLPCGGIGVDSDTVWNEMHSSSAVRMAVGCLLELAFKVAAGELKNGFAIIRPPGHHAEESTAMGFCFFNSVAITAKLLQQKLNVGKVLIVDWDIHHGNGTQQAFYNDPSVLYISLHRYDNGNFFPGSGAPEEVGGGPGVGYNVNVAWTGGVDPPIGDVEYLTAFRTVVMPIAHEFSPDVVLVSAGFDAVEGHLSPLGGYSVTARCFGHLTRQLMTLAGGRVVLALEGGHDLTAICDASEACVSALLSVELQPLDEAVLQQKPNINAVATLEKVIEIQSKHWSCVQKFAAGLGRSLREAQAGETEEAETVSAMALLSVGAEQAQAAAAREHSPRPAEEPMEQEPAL
As to the kind of experiment: HDAC5 biochemical assay, class IIa-specific substrate. As to conditions: read-out: HDAC Isoform IC50 (nM) 5. Put shortly: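 Full-length C-terminal His-tagged HDAC5 from baculovirus (0.05 ng/ul) incubated 30 min at room temperature with 50 μM Boc-Lys(trifluoroacetyl)-AMC and compound, Tris pH 8.0 buffer with BSA, 1% DMSO. Developer then releases AMC; fluorescence 360/460 nm.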

Another assay deals with T3, Human HDAC7 (Homo sapiens, UniProt Q8WUI4).
T3 construct: (a.a. 518-end) with N-terminal GST tag; GST (N); host or cells: baculovirus expression system
T3 sequence (Q8WUI4 518-952 limits assumed): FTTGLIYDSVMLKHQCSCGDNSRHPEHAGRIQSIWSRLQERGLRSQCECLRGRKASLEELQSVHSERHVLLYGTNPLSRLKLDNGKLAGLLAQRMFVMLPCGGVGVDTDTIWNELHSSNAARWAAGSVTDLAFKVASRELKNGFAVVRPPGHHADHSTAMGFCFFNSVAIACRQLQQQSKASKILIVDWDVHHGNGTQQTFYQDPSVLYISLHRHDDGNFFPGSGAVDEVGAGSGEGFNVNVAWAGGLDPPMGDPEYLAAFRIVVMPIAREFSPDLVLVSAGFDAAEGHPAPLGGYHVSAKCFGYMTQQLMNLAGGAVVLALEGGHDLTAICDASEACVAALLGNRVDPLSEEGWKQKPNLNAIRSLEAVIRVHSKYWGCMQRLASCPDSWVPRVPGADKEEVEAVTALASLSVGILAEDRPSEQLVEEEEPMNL
The assay is described as follows: HDAC7 biochemical assay, class IIa-specific substrate. As to conditions: read-out: HDAC Isoform IC50 (nM) 7. Summed up:
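GST-tagged HDAC7 (a.a. 518-end, baculovirus-expressed) at 0.001 ng/ul with 50 μM Boc-Lys(trifluoroacetyl)-AMC substrate, 30 min at room temperature in pH 8.0 Tris buffer with BSA, 1% DMSO final. Developer then releases AMC; fluorescence read at 360/460 nm.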

Regarding `Fc1ccnc(N(Cc2ccc(-c3noc(C(F)(F)F)n3)s2)c2cnccn2)c1` [Example AG, N-(4-Fluoropyridin-2-yl)-N-({5-[5-(trifluoromethyl)-1,2,4-oxadiazol-3-yl]thiophen-2-yl}methyl)pyrazin-2-amine], the values for the concentration for half-maximal inhibition (IC50) on Recombinant human HDAC6, on Human HDAC5 and on Human HDAC7 were at most 500 nM, at most 10000 nM and at most 10000 nM, respectively.

For `FC(F)(F)c1nc(-c2ccc(CN(c3cnccn3)c3ncccn3)s2)no1` [Example AS, N-(Pyrimidin-2-yl)-N-({5-[5-(trifluoromethyl)-1,2,4-oxadiazol-3-yl]thiophen-2-yl}methyl)pyrazin-2-amine], the IC50 (commonly the midpoint of a concentration-inhibition curve) was at most 1000 nM at Recombinant human HDAC6, at most 1000 nM at Human HDAC5 and at most 10000 nM on Human HDAC7.

On to `FC(F)(F)c1nc(-c2ccc(CN(c3cnccn3)c3cnccn3)s2)no1` [Example BA, N-(Pyrazin-2-yl)-N-({5-[5-(trifluoromethyl)-1,2,4-oxadiazol-3-yl]thiophen-2-yl}methyl)pyrazin-2-amine], for which the concentration for half-maximal inhibition (IC50) on Recombinant human HDAC6 was at most 500 nM; on Human HDAC5 it was at most 1000 nM; on Human HDAC7, at most 1000 nM.

Turning to `Cc1nccnc1N(Cc1ccc(-c2noc(C(F)(F)F)n2)s1)c1cnccn1` [Example BE, 3-Methyl-N-(pyrazin-2-yl)-N-({5-[5-(trifluoromethyl)-1,2,4-oxadiazol-3-yl]thiophen-2-yl}methyl)pyrazin-2-amine], the IC50 on Recombinant human HDAC6, on Human HDAC5 and at Human HDAC7 was at most 500 nM each time.

Regarding `COc1nccnc1N(Cc1ccc(-c2noc(C(F)(F)F)n2)s1)c1cnccn1` [Example BF, 3-Methoxy-N-(pyrazin-2-yl)-N-({5-[5-(trifluoromethyl)-1,2,4-oxadiazol-3-yl]thiophen-2-yl}methyl)pyrazin-2-amine], the IC50 at Recombinant human HDAC6, at Human HDAC5 and on Human HDAC7 was at most 10000 nM in each case.

Consider `Cc1cnc(N(Cc2ccc(-c3noc(C(F)(F)F)n3)s2)c2cnccn2)cn1` [Example BH, 5-Methyl-N-(pyrazin-2-yl)-N-({5-[5-(trifluoromethyl)-1,2,4-oxadiazol-3-yl]thiophen-2-yl}methyl)pyrazin-2-amine], for which the figures for the IC50 on Recombinant human HDAC6, at Human HDAC5 and on Human HDAC7 were at most 500 nM, at most 1000 nM and at most 1000 nM, respectively.

On to `COc1cnc(N(Cc2ccc(-c3noc(C(F)(F)F)n3)s2)c2cnccn2)cn1` [Example BI, 5-Methoxy-N-(pyrazin-2-yl)-N-({5-[5-(trifluoromethyl)-1,2,4-oxadiazol-3-yl]thiophen-2-yl}methyl)pyrazin-2-amine], for which the IC50 on Recombinant human HDAC6 was at most 1000 nM; at Human HDAC5 it was at most 10000 nM; on Human HDAC7 it was at most 500 nM.

Regarding `FC(F)(F)c1cnc(N(Cc2ccc(-c3noc(C(F)(F)F)n3)s2)c2cnccn2)cn1` [Example BK, N-(Pyrazin-2-yl)-5-(trifluoromethyl)-N-({5-[5-(trifluoromethyl)-1,2,4-oxadiazol-3-yl]thiophen-2-yl}methyl)pyrazin-2-amine], the half-maximal inhibitory concentration (IC50) on Recombinant human HDAC6, on Human HDAC5 and on Human HDAC7 was at most 10000 nM in each case.

Take `FC(F)(F)c1nc(-c2ccc(CN(c3cnccn3)c3cnc(N4CCOCC4)cn3)s2)no1` [Example BM, 5-(Morpholin-4-yl)-N-(pyrazin-2-yl)-N-({5-[5-(trifluoromethyl)-1,2,4-oxadiazol-3-yl]thiophen-2-yl}methyl)pyrazin-2-amine]: the IC50 was at most 10000 nM at Recombinant human HDAC6, at most 1000 nM at Human HDAC5 and at most 10000 nM on Human HDAC7.

Regarding `Cc1cncc(N(Cc2ccc(-c3noc(C(F)(F)F)n3)s2)c2cnccn2)n1` [Example BP, 6-Methyl-N-(pyrazin-2-yl)-N-({5-[5-(trifluoromethyl)-1,2,4-oxadiazol-3-yl]thiophen-2-yl}methyl)pyrazin-2-amine], the IC50 on Recombinant human HDAC6 is at most 500 nM; at Human HDAC5, at most 500 nM; on Human HDAC7, at most 10000 nM.

Consider `COc1cncc(N(Cc2ccc(-c3noc(C(F)(F)F)n3)s2)c2cnccn2)n1` [Example BQ, 6-Methoxy-N-(pyrazin-2-yl)-N-({5-[5-(trifluoromethyl)-1,2,4-oxadiazol-3-yl]thiophen-2-yl}methyl)pyrazin-2-amine], for which the concentration for half-maximal inhibition (IC50) at Recombinant human HDAC6 was at most 500 nM; on Human HDAC5, at most 1000 nM; on Human HDAC7 it was at most 10000 nM.

For the compound `FC(F)(F)c1cncc(N(Cc2ccc(-c3noc(C(F)(F)F)n3)s2)c2cnccn2)n1` [Example BR, N-(Pyrazin-2-yl)-6-(trifluoromethyl)-N-({5-[5-(trifluoromethyl)-1,2,4-oxadiazol-3-yl]thiophen-2-yl}methyl)pyrazin-2-amine], the half-maximal inhibitory concentration (IC50) at Recombinant human HDAC6, at Human HDAC5 and at Human HDAC7 was at most 10000 nM throughout.

In the case of `NC(=O)c1ccc(N(Cc2ccc(-c3noc(C(F)(F)F)n3)s2)c2cnccn2)nn1` [Example DQ, 6-[(Pyrazin-2-yl)({5-[5-(trifluoromethyl)-1,2,4-oxadiazol-3-yl]thiophen-2-yl}methyl)amino]pyridazine-3-carboxamide], the IC50 at Recombinant human HDAC6, at Human HDAC5 and on Human HDAC7 was at most 500 nM throughout.

`COC1CN(C(=O)c2ccc(N(Cc3ccc(-c4noc(C(F)(F)F)n4)s3)c3cnccn3)nn2)C1` [Example DR, 6-(3-Methoxyazetidine-1-carbonyl)-N-(pyrazin-2-yl)-N-({5-[5-(trifluoromethyl)-1,2,4-oxadiazol-3-yl]thiophen-2-yl}methyl)pyridazin-3-amine]: the IC50 on Recombinant human HDAC6, on Human HDAC5 and at Human HDAC7 was at most 500 nM each time.

Regarding `O=C(c1ccc(N(Cc2ccc(-c3noc(C(F)(F)F)n3)s2)c2cnccn2)nn1)N1CCOCC1` [Example DS, 6-(Morpholine-4-carbonyl)-N-(pyrazin-2-yl)-N-({5-[5-(trifluoromethyl)-1,2,4-oxadiazol-3-yl]thiophen-2-yl}methyl)pyridazin-3-amine], the IC50 on Recombinant human HDAC6, on Human HDAC5 and at Human HDAC7 was at most 500 nM in each case.

With `O=C(O)c1cnnc(N(Cc2ccc(-c3noc(C(F)(F)F)n3)s2)c2cnccn2)c1` [Example DW, 6-[(Pyrazin-2-yl)({5-[5-(trifluoromethyl)-1,2,4-oxadiazol-3-yl]thiophen-2-yl}methyl)amino]pyridazine-4-carboxylic acid], the IC50 on Recombinant human HDAC6 was at most 500 nM; on Human HDAC5, at most 10000 nM; on Human HDAC7, at most 10000 nM.

Turning to `NC(=O)c1cnnc(N(Cc2ccc(-c3noc(C(F)(F)F)n3)s2)c2cnccn2)c1` [Example DX, 6-[(Pyrazin-2-yl)({5-[5-(trifluoromethyl)-1,2,4-oxadiazol-3-yl]thiophen-2-yl}methyl)amino]pyridazine-4-carboxamide], the IC50 at Recombinant human HDAC6, at Human HDAC5 and at Human HDAC7 was at most 500 nM in each case.
